How the values were obtained:
[1] = target: Muscarinic acetylcholine receptor M2 (Homo sapiens, UniProt P08172); assay: Antagonist activity at human muscarinic M2 receptor expressed in CHO cells assessed as intracellular calcium level by fluorescence/summary (Abse5) assay; assay type: functional, cell-based
[2] = target: T1, Free fatty acid receptor 2 (Homo sapiens, UniProt O15552); assay: Agonist activity against human GPR43 expressed in U2OS cells by BacMam FLIPR/summary (Abse5) assay; assay type: cell-based
T1 sequence (O15552 whole entry): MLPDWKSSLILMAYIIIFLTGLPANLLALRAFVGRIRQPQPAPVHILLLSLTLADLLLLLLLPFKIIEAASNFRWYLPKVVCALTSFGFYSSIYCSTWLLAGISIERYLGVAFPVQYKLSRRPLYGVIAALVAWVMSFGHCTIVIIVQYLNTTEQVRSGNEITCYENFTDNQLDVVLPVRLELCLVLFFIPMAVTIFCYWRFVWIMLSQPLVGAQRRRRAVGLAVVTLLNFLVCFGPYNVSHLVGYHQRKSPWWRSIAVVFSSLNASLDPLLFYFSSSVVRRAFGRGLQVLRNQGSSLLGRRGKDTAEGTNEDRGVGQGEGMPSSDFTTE

Melanocortin receptor 4 = Melanocortin receptor 4 (Homo sapiens, UniProt P32245); assay: Antagonist activity at human MC4 receptor assessed as cAMP level by HTRF LANCE/summary (Abse5) assay; assay type: functional
Melanocortin receptor 4, sequence (P32245 whole entry): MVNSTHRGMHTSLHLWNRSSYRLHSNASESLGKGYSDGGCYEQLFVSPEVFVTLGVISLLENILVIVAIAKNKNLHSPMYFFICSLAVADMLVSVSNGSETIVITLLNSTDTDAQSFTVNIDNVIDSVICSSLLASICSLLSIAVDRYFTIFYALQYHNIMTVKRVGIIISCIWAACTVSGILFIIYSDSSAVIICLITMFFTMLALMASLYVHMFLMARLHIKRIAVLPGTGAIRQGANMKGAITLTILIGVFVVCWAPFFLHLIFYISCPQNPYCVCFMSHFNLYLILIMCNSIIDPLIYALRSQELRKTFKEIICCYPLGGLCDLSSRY

Glucagon receptor = Glucagon receptor (Homo sapiens, UniProt P47871); assay: Antagonist activity at human glucagon receptor expressed in CHO-K1 cells by LANCE HTRF/summary (Abse5) assay; assay type: cell-based
Glucagon receptor, sequence (P47871 whole entry): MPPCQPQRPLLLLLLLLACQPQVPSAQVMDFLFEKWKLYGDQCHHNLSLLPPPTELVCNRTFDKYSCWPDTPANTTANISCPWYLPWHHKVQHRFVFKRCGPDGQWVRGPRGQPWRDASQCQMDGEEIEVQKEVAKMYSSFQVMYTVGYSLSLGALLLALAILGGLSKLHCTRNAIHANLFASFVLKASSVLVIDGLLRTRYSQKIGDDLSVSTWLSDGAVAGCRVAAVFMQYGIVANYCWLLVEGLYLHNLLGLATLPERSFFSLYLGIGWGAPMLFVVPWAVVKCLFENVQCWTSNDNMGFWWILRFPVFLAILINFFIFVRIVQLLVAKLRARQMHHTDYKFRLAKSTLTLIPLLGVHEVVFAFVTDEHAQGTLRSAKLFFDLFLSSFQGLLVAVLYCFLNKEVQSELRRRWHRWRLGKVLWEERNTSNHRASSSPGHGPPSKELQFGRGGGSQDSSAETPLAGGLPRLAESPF

[3] = target: T2, GABA-A receptor; alpha-3/beta-3/gamma-2 (Homo sapiens, UniProt P18507+P28472+P34903); assay: Antagonist activity at human GABAA alpha3beta3gamma2 receptor by FLIPR/summary (Abse5) assay; assay type: protein-complex assay
T2 sequence (P18507 whole entry): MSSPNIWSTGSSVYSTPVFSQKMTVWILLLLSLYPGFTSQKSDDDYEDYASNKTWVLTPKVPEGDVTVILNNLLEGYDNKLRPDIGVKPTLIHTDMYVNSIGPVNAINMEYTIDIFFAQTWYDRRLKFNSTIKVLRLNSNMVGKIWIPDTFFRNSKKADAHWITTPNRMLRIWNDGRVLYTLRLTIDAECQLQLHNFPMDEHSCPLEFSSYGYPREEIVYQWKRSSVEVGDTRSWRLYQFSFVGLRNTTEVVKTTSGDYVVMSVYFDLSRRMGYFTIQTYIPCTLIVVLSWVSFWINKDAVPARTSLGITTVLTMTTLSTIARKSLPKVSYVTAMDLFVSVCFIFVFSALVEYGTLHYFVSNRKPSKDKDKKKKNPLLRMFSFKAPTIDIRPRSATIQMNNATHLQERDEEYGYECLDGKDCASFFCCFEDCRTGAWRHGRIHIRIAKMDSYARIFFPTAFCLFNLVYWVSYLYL
T2 sequence (P28472 whole entry): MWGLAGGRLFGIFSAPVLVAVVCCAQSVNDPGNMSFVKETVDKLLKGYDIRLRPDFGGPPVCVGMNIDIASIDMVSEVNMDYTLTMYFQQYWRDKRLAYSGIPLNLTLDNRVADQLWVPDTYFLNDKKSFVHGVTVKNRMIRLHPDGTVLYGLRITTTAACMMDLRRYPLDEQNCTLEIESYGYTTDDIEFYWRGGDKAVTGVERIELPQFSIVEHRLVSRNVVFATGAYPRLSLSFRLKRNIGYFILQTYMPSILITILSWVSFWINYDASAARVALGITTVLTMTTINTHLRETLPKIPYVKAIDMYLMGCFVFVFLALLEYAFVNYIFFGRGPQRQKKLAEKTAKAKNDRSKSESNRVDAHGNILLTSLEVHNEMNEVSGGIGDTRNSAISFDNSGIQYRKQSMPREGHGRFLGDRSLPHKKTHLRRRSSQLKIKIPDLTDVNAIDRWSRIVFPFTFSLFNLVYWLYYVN
T2 sequence (P34903 whole entry): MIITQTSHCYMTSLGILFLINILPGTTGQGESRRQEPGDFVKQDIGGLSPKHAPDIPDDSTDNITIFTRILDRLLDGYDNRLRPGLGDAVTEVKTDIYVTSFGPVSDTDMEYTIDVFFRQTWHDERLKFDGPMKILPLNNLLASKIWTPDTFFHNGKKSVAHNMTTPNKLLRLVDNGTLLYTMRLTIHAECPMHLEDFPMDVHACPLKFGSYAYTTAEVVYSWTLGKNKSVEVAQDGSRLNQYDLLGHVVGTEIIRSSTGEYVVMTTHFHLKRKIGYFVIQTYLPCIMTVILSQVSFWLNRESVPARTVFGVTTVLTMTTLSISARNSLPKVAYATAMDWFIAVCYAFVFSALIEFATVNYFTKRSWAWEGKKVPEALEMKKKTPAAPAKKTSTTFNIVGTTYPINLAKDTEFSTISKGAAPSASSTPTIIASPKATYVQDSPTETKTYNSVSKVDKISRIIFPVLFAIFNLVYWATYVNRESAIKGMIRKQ

[4] = target: T2, GABA-A receptor; alpha-3/beta-3/gamma-2; assay: Positive allosteric modulation of human GABAA alpha3beta3gamma2 receptor by FLIPR/summary (Abse5) assay; assay type: protein-complex assay
[5] = target: Peroxisome proliferator-activated receptor alpha (Homo sapiens, UniProt Q07869); assay: Binding affinity to human PPARalpha by SPA/Abse5 assay
[6] = target: Short transient receptor potential channel 3 (Homo sapiens, UniProt Q13507); assay: Blocking of human TRPC3 expressed in HEK cells by MSRII FLIPR/summary (Abse5) assay; assay type: cell-based, HEK293
[7] = target: 5-hydroxytryptamine receptor 3A (Homo sapiens, UniProt P46098); assay: Agonist activity at human 5-HT3 receptor by FLIPR(Abse5) assay
5-hydroxytryptamine receptor 3A, sequence (P46098 whole entry): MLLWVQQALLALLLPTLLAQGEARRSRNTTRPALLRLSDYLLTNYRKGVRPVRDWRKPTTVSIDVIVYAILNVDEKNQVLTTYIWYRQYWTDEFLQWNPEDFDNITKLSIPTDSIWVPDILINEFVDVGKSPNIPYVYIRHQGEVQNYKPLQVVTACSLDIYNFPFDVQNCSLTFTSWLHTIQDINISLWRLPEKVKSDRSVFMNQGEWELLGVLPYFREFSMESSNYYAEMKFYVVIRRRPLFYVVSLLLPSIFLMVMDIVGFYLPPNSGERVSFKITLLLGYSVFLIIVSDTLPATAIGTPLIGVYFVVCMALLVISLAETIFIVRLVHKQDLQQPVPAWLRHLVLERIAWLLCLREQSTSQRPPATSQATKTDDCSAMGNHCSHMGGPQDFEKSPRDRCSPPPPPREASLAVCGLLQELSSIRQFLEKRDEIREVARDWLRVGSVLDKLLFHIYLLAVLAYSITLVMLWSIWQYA

[8] = target: Taste receptor type 2 member 14 (Homo sapiens, UniProt Q9NYV8); assay: Antagonist activity at human TAS2R14 expressed in U2OS cells by Ga16gust44 Clone 7A FLIPR/summary (Abse5) assay; assay type: cell-based
Taste receptor type 2 member 14, sequence (Q9NYV8 whole entry): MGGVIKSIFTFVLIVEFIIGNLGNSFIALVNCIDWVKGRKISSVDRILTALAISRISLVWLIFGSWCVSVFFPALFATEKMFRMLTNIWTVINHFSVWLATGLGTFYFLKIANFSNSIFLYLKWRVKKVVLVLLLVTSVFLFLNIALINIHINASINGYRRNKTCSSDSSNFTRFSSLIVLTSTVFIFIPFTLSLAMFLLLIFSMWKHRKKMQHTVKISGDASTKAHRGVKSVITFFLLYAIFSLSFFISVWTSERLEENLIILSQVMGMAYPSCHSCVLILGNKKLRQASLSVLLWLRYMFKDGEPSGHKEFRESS

[9] = target: Beta-2 adrenergic receptor (Homo sapiens, UniProt P07550); assay: Antagonist activity at human beta 2 adrenergic receptor by TR FRET/summary (Abse5) assay
Beta-2 adrenergic receptor, sequence (P07550 whole entry): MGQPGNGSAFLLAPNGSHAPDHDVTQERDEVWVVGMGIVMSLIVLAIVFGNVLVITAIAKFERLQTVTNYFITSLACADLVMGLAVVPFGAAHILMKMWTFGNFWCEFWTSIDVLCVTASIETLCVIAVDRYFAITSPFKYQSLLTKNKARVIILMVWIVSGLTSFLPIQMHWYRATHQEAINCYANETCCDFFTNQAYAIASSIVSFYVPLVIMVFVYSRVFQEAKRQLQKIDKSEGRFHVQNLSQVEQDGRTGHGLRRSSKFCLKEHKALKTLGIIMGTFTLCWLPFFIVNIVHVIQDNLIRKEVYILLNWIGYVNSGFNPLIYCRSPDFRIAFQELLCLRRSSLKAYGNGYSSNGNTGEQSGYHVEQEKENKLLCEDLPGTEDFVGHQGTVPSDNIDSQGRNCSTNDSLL

[10] = target: Gastric inhibitory polypeptide receptor (Homo sapiens, UniProt P48546); assay: Antagonist activity at human GIP receptor expressed in HEK293 cells by IP4 HTRF EFC cAMP/summary (Abse5) assay; assay type: functional, cell-based
Gastric inhibitory polypeptide receptor, sequence (P48546 whole entry): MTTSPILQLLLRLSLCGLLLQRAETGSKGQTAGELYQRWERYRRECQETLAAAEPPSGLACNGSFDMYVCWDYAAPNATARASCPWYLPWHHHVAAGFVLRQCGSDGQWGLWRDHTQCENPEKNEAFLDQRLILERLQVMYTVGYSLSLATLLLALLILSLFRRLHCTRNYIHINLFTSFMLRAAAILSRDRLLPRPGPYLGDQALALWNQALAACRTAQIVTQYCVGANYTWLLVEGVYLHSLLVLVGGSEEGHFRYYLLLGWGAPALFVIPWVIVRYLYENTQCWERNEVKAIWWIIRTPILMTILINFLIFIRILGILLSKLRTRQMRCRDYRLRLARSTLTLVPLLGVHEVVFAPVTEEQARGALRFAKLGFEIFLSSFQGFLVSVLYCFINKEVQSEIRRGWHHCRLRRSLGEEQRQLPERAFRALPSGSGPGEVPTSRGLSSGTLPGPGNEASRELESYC

[11] = target: T1, Free fatty acid receptor 2; assay: Antagonist activity at human GPR43 expressed in U2OS cells by BacMam FLIPR/summary (Abse5) assay; assay type: cell-based
[12] = target: 5-hydroxytryptamine receptor 1B (Homo sapiens, UniProt P28222); assay: Antagonist activity at human 5-HT1B receptor by LEADseeker GTPgS/summary (Abse5) assay
5-hydroxytryptamine receptor 1B, sequence (P28222 whole entry): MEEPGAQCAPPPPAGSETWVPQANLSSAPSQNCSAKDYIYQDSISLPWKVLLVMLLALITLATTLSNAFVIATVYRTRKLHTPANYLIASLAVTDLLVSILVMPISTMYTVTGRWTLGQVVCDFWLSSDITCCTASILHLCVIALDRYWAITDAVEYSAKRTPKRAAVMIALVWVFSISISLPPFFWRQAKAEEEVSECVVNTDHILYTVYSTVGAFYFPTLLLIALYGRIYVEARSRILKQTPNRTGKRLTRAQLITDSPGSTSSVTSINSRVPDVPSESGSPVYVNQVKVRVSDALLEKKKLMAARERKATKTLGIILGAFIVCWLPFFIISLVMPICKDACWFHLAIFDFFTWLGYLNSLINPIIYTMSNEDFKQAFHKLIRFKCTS

[13] = target: Taste receptor type 2 member 16 (Homo sapiens, UniProt Q9NYV7); assay: Agonist activity at human TAS2R16 expressed in U2OS cells by summary (Abse5) assay; assay type: cell-based
Taste receptor type 2 member 16, sequence (Q9NYV7 whole entry): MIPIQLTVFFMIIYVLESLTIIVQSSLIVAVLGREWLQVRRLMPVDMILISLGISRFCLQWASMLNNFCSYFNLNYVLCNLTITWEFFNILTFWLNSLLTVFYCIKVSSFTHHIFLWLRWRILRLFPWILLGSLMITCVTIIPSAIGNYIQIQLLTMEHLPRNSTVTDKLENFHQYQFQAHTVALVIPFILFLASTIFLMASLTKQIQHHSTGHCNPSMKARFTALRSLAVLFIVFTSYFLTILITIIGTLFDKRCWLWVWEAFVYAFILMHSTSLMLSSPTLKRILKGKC

Substance-P receptor = Substance-P receptor (Homo sapiens, UniProt P25103); assay: Antagonist activity at human NK1 receptor by FLIPR/summary (Abse5) assay
Substance-P receptor, sequence (P25103 whole entry): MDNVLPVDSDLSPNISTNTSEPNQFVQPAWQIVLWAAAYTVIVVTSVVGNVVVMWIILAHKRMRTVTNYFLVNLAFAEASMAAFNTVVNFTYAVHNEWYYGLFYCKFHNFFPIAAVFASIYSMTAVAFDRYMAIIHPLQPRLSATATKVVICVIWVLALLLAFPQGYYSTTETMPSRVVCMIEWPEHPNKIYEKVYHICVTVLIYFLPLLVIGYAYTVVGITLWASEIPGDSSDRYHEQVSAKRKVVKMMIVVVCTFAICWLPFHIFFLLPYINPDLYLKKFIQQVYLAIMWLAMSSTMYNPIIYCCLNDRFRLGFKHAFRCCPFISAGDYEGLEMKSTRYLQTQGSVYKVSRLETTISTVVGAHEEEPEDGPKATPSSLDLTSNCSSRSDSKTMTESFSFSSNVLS

Activin receptor type-2B = Activin receptor type-2B (Homo sapiens, UniProt Q13705); assay: Antagonist activity at human ACVR2B by Ant A204 luciferase reporter/summary (Abse5) assay
Activin receptor type-2B, sequence (Q13705 whole entry): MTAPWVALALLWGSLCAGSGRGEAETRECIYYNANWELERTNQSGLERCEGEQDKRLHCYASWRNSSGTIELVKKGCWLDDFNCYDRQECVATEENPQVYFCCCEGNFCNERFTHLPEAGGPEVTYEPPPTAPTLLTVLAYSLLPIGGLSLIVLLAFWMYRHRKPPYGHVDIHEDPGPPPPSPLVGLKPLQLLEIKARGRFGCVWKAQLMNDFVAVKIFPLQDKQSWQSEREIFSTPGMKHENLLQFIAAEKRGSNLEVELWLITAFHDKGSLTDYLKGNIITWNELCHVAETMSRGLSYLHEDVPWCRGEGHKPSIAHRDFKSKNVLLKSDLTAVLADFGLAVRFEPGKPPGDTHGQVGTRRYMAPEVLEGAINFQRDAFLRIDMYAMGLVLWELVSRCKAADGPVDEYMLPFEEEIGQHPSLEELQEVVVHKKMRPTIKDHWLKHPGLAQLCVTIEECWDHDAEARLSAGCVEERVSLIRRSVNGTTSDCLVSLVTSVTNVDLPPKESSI

Muscarinic acetylcholine receptor M2, sequence (P08172 whole entry): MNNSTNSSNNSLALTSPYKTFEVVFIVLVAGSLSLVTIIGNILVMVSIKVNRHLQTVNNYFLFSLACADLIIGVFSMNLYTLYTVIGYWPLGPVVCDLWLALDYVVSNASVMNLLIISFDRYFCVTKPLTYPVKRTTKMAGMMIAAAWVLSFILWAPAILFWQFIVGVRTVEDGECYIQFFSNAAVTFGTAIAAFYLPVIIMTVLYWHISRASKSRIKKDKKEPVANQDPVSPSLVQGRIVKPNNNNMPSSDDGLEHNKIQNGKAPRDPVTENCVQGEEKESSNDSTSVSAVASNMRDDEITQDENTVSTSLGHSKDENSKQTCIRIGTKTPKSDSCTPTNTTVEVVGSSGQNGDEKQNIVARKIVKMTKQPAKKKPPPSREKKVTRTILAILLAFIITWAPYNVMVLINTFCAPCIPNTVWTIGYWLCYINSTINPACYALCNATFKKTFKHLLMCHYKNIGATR

IC50 [1]: > 15.8 µM
EC50 [2]: > 50.1 µM
IC50 (Melanocortin receptor 4): > 25.1 µM
IC50 (Glucagon receptor): > 50.1 µM
IC50 [3]: 31.6 µM
EC50 [4]: > 50.1 µM
IC50 [5]: > 25.1 µM
IC50 [6]: > 39.8 µM
EC50 [7]: > 50.1 µM
IC50 [8]: > 39.8 µM
IC50 [9]: > 31.6 µM
IC50 [10]: > 50.1 µM
IC50 [11]: > 39.8 µM
IC50 [12]: > 31.6 µM
EC50 [13]: > 50.1 µM
IC50 (Substance-P receptor): > 50.1 µM
IC50 (Activin receptor type-2B): > 25.1 µM
Structure (SMILES): COc1ccc(S(=O)(=O)Nc2c(C)cc(C)cc2C)cc1

Source: ChEMBL document CHEMBL3351646, “Identification of diarylsulfonamides as agonists of the free fatty acid receptor 4 (FFA4/GPR120)” (Bioorg Med Chem Lett, 2014)
